For this assay, the target named is T1, recombinant RORγ Ligand Binding Domain (LBD) protein (Homo sapiens, UniProt P51449).
T1 construct: 6×His; GST
T1 sequence (P51449 269-508 limits assumed): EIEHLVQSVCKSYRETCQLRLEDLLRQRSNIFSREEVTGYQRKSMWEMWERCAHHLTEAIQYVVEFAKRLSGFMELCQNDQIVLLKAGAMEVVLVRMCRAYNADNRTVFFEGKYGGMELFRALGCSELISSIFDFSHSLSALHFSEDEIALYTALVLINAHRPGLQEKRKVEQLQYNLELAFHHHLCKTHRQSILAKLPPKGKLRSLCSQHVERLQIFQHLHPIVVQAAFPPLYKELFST
In words: Radio-Ligand RORγ Binding Assay (Assay 1). Conditions: read-out: Avg ROR Bind Ki. As to the method: Radio-Ligand RORγ Binding Assay (Assay 1)
Compounds described herein were tested for ability to bind to RORγ in a cell-free competition assay with commercially available radio-ligand (RL), 25-hydroxy [26,27-^3H]-cholesterol (PerkinElmer, Cat. #NET674250UC), for a ligand binding site on a recombinant RORγ Ligand Binding Domain (LBD) protein expressed as a 6×His-Glutathione-S-Transferase (GST) fusion. The assay was performed in 96-well SPA plates (PerkinElmer, Cat. #1450-401) in 50 mM HEPES buffer, pH 7.4, containing 150 mM NaCl, 5 mM MgCl2, 10% (v/v) glycerol, 2 mM CHAPS, 0.5 mM 3-octylglucopyranoside and 5 mM DTT. Tested compounds were dissolved in DMSO, and semi-log (3.162×) serial dilutions of the compounds were prepared in the same solvent. Two μL of the DMSO solutions were mixed with 28 μL of 8.6 nM 25-hydroxy [26,27-^3H]-cholesterol and 50 μL of 24 nM RORγ LBD. The plate was shaken at 700 rpm for 20 min and incubated for 10 min at rt, after which 40 μL of poly-Lys YSi SPA beads (PerkinElmer, Cat. #RPNQ0010) were added to achieve 50 μg of the beads per well. The plate was incubated on an orbital shaker for 20 min and then for 10 min without agitation at rt. SPA signal for tritium beta radiation was registered on PerkinElmer Microbeta plate reader. […] The percent inhibition vs. concentration data were fit into a four-parameter model, and IC50 values were calculated from the fit as the concentrations corresponding to the inflection points on the dose-response curves. Inhibitory constants (Ki) were calculated using the following equation, where [RL] is the concentration in the assay and KD is a dissociation constant of 25-hydroxy [26,27-^3H]-cholesterol: […]

The mark [1] stands for this setting: radio-ligand competition, 25-hydroxy [26,27-3H]-cholesterol, RORγ LBD.
The mark [2] stands for this setting: radio-ligand competition, RORγ LBD, head without unit (Tables 15, 17).

Read-outs that look alike come from different tables or passages of the source.

Take `CCS(=O)(=O)c1ccc(CNC(=O)c2ccc3c(c2)CCN(Cc2ccc(C#N)cc2)C3C)cc1` (racemic) [Hy2A-10, 2-(4-cyanobenzyl)-N-(4-(ethylsulfonyl)benzyl)-1-methyl-1,2,3,4-tetrahydroisoquinoline-6-carboxamide]: the Ki under setting [1] lay in the range of 100 to 1000 nM.
Regarding `CCS(=O)(=O)c1ccc(CNC(=O)c2ccc3c(c2)CN(c2ncc(N4CCOCC4)cn2)C[C@H]3C(C)C)cc1` (single isomer, unassigned) [Hy7-19.1], under setting [1], the Ki was 100 to 1000 nM.
`CCS(=O)(=O)c1ccc(CNC(=O)c2ccc3c(OCc4ccc(C(F)(F)F)cc4)cc(C)nc3c2)cc1` [Hy1B-1, N-(4-(ethylsulfonyl)benzyl)-2-methyl-4-((4-(trifluoromethyl)benzyl)oxy)quinoline-7-carboxamide]: the Ki under setting [1] is 100 to 1000 nM.
`CCS(=O)(=O)c1ccc(CNC(=O)c2cnc3c(c2)CCN(C[C@H]2CC[C@H](C(F)(F)F)CC2)[C@@H]3C(C)C)cc1` (single isomer, unassigned) [Hy2B-9.2]: under setting [2], the Ki was 100 to 1000 nM.
With `CCC1CN(C2CCC(C(F)(F)F)CC2)Cc2cc(C(=O)NC(CO)c3ccc(S(=O)(=O)CC)cc3)ccc21` (single isomer, unassigned) [Hy7-35.4], the Ki under setting [1] is 100 to 1000 nM.
Take `CCS(=O)(=O)c1ccc(CNC(=O)c2ccc3c(c2)CCN(Cc2ccc(OC(F)F)nc2)[C@@H]3C(C)C)cc1` (single isomer, unassigned) [Hy2A-25.2]: the inhibition constant (Ki) under setting [1] was 100 to 1000 nM.
`CCS(=O)(=O)c1ccc(CNC(=O)c2ccc3c(c2)CCN(Cc2ccc(C#N)nc2)[C@@H]3C(C)C)cc1` (single isomer, unassigned) [Hy2A-17.2]: the Ki under setting [1] fell in the range of 100 to 1000 nM.
On the same count and under the same terms, the result for `CCS(=O)(=O)c1ccc(CNC(=O)c2cnc3c(C4CC4)n(C[C@H]4CC[C@H](C(F)(F)F)CC4)nc3c2)nc1` [Hy3B-3, 3-cyclopropyl-N-((5-(ethylsulfonyl)pyridin-2-yl)methyl)-2-(((1r,4r)-4-(trifluoromethyl)cyclohexyl)methyl)-2H-pyrazolo[4,3-b]pyridine-6-carboxamide] reads 100 to 1000 nM.
Turning to `CCS(=O)(=O)c1ccc(CNC(=O)c2ccc3c(OC[C@H]4CC[C@H](C(F)(F)F)CC4)ncnc3c2)cc1` [Hy1C-2, N-(4-(ethylsulfonyl)benzyl)-4-(((1r,4r)-4-(trifluoromethyl)cyclohexyl)methoxy)quinazoline-7-carboxamide], the Ki (competition with 25-hydroxy [26,27-3H]-cholesterol, SPA, class symbols) was in the range of 100 to 1000 nM.
In the case of `CCS(=O)(=O)c1ccc(CNC(=O)c2ccc3c(c2)CN(c2ncc(C(F)(F)F)cn2)C[C@@H]3C(C)C)cc1` (single isomer, unassigned) [Hy7-15.2], under setting [1], the Ki is < 100 nM.
`CCS(=O)(=O)c1ccc(CNC(=O)c2ccc3c(c2)CN(c2ncc(-c4ccc(=O)n(C)c4)cn2)C[C@@H]3C(C)C)cc1` (single isomer, unassigned) [Hy7-24.2]: the Ki under setting [1] is > 1000 nM.
Still for that read-out and setting: the result for `CCS(=O)(=O)c1ccc(CNC(=O)c2cn(C)c3c(OC[C@H]4CC[C@H](C(F)(F)F)CC4)nccc23)cc1` [Hy5-4, N-(4-(ethylsulfonyl)benzyl)-1-methyl-7-(((1r,4r)-4-(trifluoromethyl)cyclohexyl)methoxy)-1H-pyrrolo[2,3-c]pyridine-3-carboxamide] reads 100 to 1000 nM.
Still for that read-out and setting: the result for `CCS(=O)(=O)c1ccc(CNC(=O)c2cnc3c(c2)CN(c2ncc(C(F)(F)F)cn2)CC3(C)C)cc1` [Hy7B-1, N-(4-(ethylsulfonyl)benzyl)-8,8-dimethyl-6-(5-(trifluoromethyl)pyrimidin-2-yl)-5,6,7,8-tetrahydro-1,6-naphthyridine-3-carboxamide] reads 100 to 1000 nM; that for `CCOC(=O)c1cnc(N2CCc3cc(C(=O)NCc4ccc(S(=O)(=O)CC)cc4)ccc3[C@@H]2C(C)C)nc1` (single isomer, unassigned) [Hy2A-4.1], 100 to 1000 nM.
Turning to `CCS(=O)(=O)c1ccc(CNC(=O)c2ccc3c(c2)CN(c2ncc(-c4ccn(C)c(=O)c4)cn2)C[C@@H]3C(C)C)cc1` (single isomer, unassigned) [Hy7-25.2], under setting [1], the inhibitory constant (Ki) is > 1000 nM.
On to `CCS(=O)(=O)c1ccc(CNC(=O)c2cnc3c(c2)CCN(Cc2ccc(C#N)cc2)C3C(C)C)cc1` (single isomer, unassigned) [Hy2B-7.2], for which the inhibition constant Ki under setting [2] was > 1000 nM.
Regarding `CCOC(=O)c1cnc(N2CCc3cc(C(=O)NCc4ccc(S(=O)(=O)CC)cc4)cnc3[C@H]2C(C)C)nc1` (single isomer, unassigned) [Hy2B-4.1], the Ki under setting [2] was > 1000 nM.
Regarding `CCS(=O)(=O)c1ccc(CNC(=O)c2cn(C)c3c(Oc4ccc(C(F)(F)F)cc4)nccc23)cc1` [Hy5-1, N-(4-(ethylsulfonyl)benzyl)-1-methyl-7-(4-(trifluoromethyl)phenoxy)-1H-pyrrolo[2,3-c]pyridine-3-carboxamide], the inhibitory constant (Ki) under setting [1] was in the range of 100 to 1000 nM.
In the case of `CCOC(=O)c1cnc(N2CCc3cc(C(=O)NCc4ccc(S(=O)(=O)CC)cc4)cnc3[C@@H]2C(C)C)nc1C(F)(F)F` (single isomer, unassigned) [Hy2B-5.2], the Ki under setting [2] was in the range of 100 to 1000 nM.
On to `CCS(=O)(=O)c1ccc(CNC(=O)c2ccc3c(Oc4ccc(C(F)(F)F)cc4)nccc3c2)cc1` [Hy1A-2, N-(4-(ethylsulfonyl)benzyl)-1-(4-(trifluoromethyl)phenoxy)isoquinoline-6-carboxamide], for which the Ki under setting [1] is 100 to 1000 nM.
The same measure, in the same setting: the result for `CCS(=O)(=O)c1ccc(CNC(=O)c2ccc3c(c2)CN(c2ncc(C#N)cn2)C[C@@H]3C(C)C)cc1` (single isomer, unassigned) [Hy7-2.2] reads 100 to 1000 nM; that for `CCS(=O)(=O)c1ccc(CNC(=O)c2ccc3c(c2)CCN(c2ncc(C#N)cn2)[C@H]3C(C)C)cc1` (single isomer, unassigned) [Hy2A-1.2], 100 to 1000 nM.
On to `CCS(=O)(=O)c1ccc(CNC(=O)c2ccc3c(c2)CN(c2ncc(-c4ccc(=O)[nH]c4)cn2)C[C@@H]3C(C)C)cc1` (single isomer, unassigned) [Hy7-21.2], for which the inhibition constant Ki under setting [1] is > 1000 nM.
Regarding `CCS(=O)(=O)c1ccc(CNC(=O)c2cnc3c(c2)CCN(c2ncc(C(F)(F)F)cn2)[C@H]3C(C)C)cc1` (single isomer, unassigned) [Hy2B-3.1], the inhibition constant (Ki) under setting [2] was in the range of 100 to 1000 nM.
Turning to `CCS(=O)(=O)c1ccc(CNC(=O)c2ccc3c(c2)CCN(Cc2ccc(C#N)cn2)[C@@H]3C(C)C)cc1` (single isomer, unassigned) [Hy2A-16.2], the Ki under setting [1] was 100 to 1000 nM.
Same read-out and setting: then `CCS(=O)(=O)c1ccc(CNC(=O)c2ccc3c(c2)CCN(Cc2ccc(F)cc2)C3C)cc1` (racemic) [Hy2A-8, N-(4-(ethylsulfonyl)benzyl)-2-(4-fluorobenzyl)-1-methyl-1,2,3,4-tetrahydroisoquinoline-6-carboxamide], with 100 to 1000 nM.
In the case of `CCS(=O)(=O)c1ccc(CNC(=O)c2cc3ccnc(OC[C@H]4CC[C@H](C(F)(F)F)CC4)c3[nH]2)cc1` [Hy4-5, N-(4-(ethylsulfonyl)benzyl)-7-(((1r,4r)-4-(trifluoromethyl)cyclohexyl)methoxy)-1H-pyrrolo[2,3-c]pyridine-2-carboxamide], under setting [2], the Ki was 100 to 1000 nM.
For `CCOC(=O)c1cnc(N2Cc3cc(C(=O)NCc4ccc(S(=O)(=O)CC)cc4)ccc3[C@@H](C(C)C)C2)nc1` (single isomer, unassigned) [Hy7-16.2], the Ki under setting [1] lay within 100 to 1000 nM.
On the same count and under the same terms, then `CCS(=O)(=O)c1ccc([C@H](CO)NC(=O)c2cn(C)c3c(OC[C@H]4CC[C@H](C(F)(F)F)CC4)nccc23)cc1` [Hy5-5, N-((R)-1-(4-(ethylsulfonyl)phenyl)-2-hydroxyethyl)-1-methyl-7-(((1r,4R)-4-(trifluoromethyl)cyclohexyl)methoxy)-1H-pyrrolo[2,3-c]pyridine-3-carboxamide], with 100 to 1000 nM.
As for `CCS(=O)(=O)c1ccc(CNC(=O)c2cnc3c(c2)CCN(c2ncc(C#N)cn2)[C@H]3C(C)C)cc1` (single isomer, unassigned) [Hy2B-1.1], the inhibition constant (Ki) under setting [2] was > 1000 nM.

Source of the values: US11008340B2, “Modulators of ROR-gamma” (Vitae Pharmaceuticals, LLC, priority 2015, dated 2021).
